Source: ChEMBL document CHEMBL4400544, “Pharmacokinetic evaluation of medicinally important synthetic N,N' diindolylmethane glucoside: Improved synthesis and metabolic stability” (Bioorg Med Chem Lett, 2019)
Values after ≈ are worked out from the molar mass of the structure shown. Active and inactive are the calls of the source. The rule behind the calls is not given here.

Assays:
[1] = Ratio of drug level in blood to plasma (unknown origin) at 500 nM by LC-MS/MS analysis; format: ADME, cell-free; settings: blood and plasma
[2] = species on record: Rattus norvegicus; test: Inhibition of P-gp in rat jejuna mucosa crude membrane fractions assessed as reduction in ATPase activity preincubated for 5 mins followed by ATP addition and measured after 30 mins; format: cell membranes
[3] = Half life in rat liver microsomes at 10 uM in presence of NADPH by LC-MS/MS analysis; format: ADME, Microsome
[4] = species on record: Rattus norvegicus; test: Inhibition of P-gp in rat jejuna mucosa crude membrane fractions assessed as ATPase activity preincubated for 5 mins followed by ATP addition and measured after 30 mins; format: cell membranes
[5] = Hepatic extraction ratio in human liver microsomes at 10 uM in presence of NADPH by LC-MS/MS analysis; format: ADME, Microsome; settings: read-out: ERH
[6] = Intrinsic clearance in human liver microsomes assessed per mg protein at 10 uM in presence of NADPH by LC-MS/MS analysis; format: ADME, Microsome; settings: read-out: CLH
[7] = Aqueous solubility of compound after 5 hrs at 25 degC by LC-MS/MS analysis; format: physicochemical; settings: aqueous medium (not specified further)
[8] = Protein binding in plasma (unknown origin) at 10 to 100 uM after 4 hrs by LC-MS/MS analysis; format: ADME, cell-free; settings: read-out: PPB
[9] = Intrinsic clearance in rat liver microsomes assessed per mg protein at 10 uM in presence of NADPH by LC-MS/MS analysis; format: ADME, Microsome; settings: read-out: CLH
[10] = Hepatic clearance in human liver microsomes at 10 uM in presence of NADPH by LC-MS/MS analysis; format: ADME, Microsome
[11] = Hepatic clearance in rat liver microsomes at 10 uM in presence of NADPH by LC-MS/MS analysis; format: ADME, Microsome
[12] = Stability in rat liver microsomes at 10 uM in presence of NADPH by LC-MS/MS analysis; format: ADME, Microsome; settings: read-out: Stability
[13] = n-Octanol/water partition co-efficient, log P of the compound after 4 hrs by LC-MS/MS analysis; format: physicochemical
[14] = Hepatic extraction ratio in rat liver microsomes at 10 uM in presence of NADPH by LC-MS/MS analysis; format: ADME, Microsome; settings: read-out: ERH
[15] = n-Octanol-PBS buffer distribution coefficient, log D of the compound after 4 hrs by LC-MS/MS analysis; format: physicochemical
[16] = Stability in human liver microsomes at 10 uM in presence of NADPH by LC-MS/MS analysis; format: ADME, Microsome; settings: read-out: Stability
[17] = Hepatic intrinsic clearance in human liver microsomes assessed per kg body weight at 10 uM in presence of NADPH by LC-MS/MS analysis; format: ADME, Microsome
[18] = Hepatic intrinsic clearance in rat liver microsomes assessed per kg body weight at 10 uM in presence of NADPH by LC-MS/MS analysis; format: ADME, Microsome
[19] = Half life in human liver microsomes at 10 uM in presence of NADPH by LC-MS/MS analysis; format: ADME, Microsome

Structure (SMILES)	blood plasma ratio at 0.5 µM [1]	inhibition [2]	half-life at 10 µM [3]	Activity [4]	hepatic extraction ratio at 10 µM [5]	microsomal CLint at 10 µM [6]	solubility at 5 h [7]	fraction unbound at 4 h, up to 100 µM [8]	microsomal CLint at 10 µM [9]	CLH [10]	CLH [11]	remaining at 10 µM [12]	logP at 4 h [13]	hepatic extraction ratio at 10 µM [14]	logD at 4 h [15]	remaining at 10 µM [16]	CLH [17]	CLH [18]	half-life at 10 µM [19]
CC(C)NCC(O)COc1ccc(CC(N)=O)cc1 (stereo not given) [ATENOLOL]	≤ 1.2	–	–	–	–	–	–	–	–	–	–	–	–	–	–	–	–	–	–
O[C@@H](COc1cccc2ncccc12)CN1CCN([C@@H]2c3ccccc3[C@@H]3[C@H](c4ccccc42)C3(F)F)CC1	–	Active	–	–	–	–	–	–	–	–	–	–	–	–	–	–	–	–	–
CCCCCCCC(c1cn([C@@H]2O[C@H](CO)[C@@H](O)[C@H](O)[C@H]2O)c2ccc(Br)cc12)c1cn([C@@H]2O[C@H](CO)[C@@H](O)[C@H](O)[C@H]2O)c2ccc(Br)cc12	≤ 1.4	–	1.16 h	5.5 to 6.1 µM/min	0.5	19 µL/min/mg	5.8 µg/mL (≈ 7.02 µM)	< 0.01	20 µL/min/mg	10.6 mL/min/kg	21.7 mL/min/kg	> 73%	1.06	0.39	0.08	> 73%	22.3 mL/min/kg	35.9 mL/min/kg	1.35 h
